Reference: ChEMBL document CHEMBL4359858, “Potently inhibiting cancer cell migration with novel 3H-pyrazolo[4,3-f]quinoline boronic acid ROCK inhibitors” (Eur J Med Chem, 2019)
pIC50, pKd: −log10 of the molar value. Active and inactive are the calls of the source. No cut-off for these calls is given here.

Tests used:
[1] = biological target: T1, Rho-associated protein kinase 2 (Homo sapiens, UniProt O75116); assay: Inhibition of recombinant human GST-tagged ROCK2 (1 to 552 residues) using myelin basic protein as substrate incubated for 30 mins by ADP-Glo assay
Target sequence in this assay (O75116 whole entry, the tested form may be a part): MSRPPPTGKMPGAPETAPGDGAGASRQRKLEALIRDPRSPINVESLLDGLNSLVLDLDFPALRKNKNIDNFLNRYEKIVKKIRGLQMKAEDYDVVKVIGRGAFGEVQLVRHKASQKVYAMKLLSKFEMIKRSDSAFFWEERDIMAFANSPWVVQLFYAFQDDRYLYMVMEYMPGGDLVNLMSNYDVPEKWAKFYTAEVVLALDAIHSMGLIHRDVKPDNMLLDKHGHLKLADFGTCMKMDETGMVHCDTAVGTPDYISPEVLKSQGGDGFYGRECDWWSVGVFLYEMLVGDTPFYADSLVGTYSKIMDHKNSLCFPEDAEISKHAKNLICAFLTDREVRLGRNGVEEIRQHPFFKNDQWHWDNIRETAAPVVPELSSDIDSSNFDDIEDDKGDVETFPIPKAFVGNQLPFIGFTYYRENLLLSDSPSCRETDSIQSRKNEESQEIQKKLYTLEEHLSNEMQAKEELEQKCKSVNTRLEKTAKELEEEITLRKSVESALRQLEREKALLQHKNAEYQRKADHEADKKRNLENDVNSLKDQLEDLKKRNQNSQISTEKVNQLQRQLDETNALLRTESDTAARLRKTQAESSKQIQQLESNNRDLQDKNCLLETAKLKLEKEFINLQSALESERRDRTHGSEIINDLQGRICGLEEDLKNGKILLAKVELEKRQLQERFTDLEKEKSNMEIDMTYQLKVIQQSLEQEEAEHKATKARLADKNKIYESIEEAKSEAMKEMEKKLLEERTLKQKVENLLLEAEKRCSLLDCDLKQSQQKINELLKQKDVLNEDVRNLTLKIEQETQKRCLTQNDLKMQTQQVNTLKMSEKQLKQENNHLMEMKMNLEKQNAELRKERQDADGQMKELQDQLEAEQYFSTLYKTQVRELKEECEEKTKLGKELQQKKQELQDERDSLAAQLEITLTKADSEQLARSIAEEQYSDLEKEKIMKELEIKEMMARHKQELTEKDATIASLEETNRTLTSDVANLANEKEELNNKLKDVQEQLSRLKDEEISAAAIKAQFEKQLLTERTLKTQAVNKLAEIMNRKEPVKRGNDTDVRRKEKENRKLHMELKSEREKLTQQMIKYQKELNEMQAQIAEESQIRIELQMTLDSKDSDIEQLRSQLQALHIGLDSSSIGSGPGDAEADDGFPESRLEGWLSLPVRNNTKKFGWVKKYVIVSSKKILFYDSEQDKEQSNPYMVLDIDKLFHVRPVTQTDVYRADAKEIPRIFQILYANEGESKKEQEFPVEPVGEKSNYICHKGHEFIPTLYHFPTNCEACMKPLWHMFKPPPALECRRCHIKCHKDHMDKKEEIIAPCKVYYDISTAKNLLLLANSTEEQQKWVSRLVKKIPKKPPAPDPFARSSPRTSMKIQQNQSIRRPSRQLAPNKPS

[2] = biological target: T2, Rho-associated protein kinase 1 (Homo sapiens, UniProt Q13464); assay: Inhibition of recombinant human GST-tagged ROCK1 (1 to 535 residues) using myelin basic protein as substrate incubated for 30 mins by ADP-Glo assay
T2 sequence (Q13464 whole entry, the tested form may be a part): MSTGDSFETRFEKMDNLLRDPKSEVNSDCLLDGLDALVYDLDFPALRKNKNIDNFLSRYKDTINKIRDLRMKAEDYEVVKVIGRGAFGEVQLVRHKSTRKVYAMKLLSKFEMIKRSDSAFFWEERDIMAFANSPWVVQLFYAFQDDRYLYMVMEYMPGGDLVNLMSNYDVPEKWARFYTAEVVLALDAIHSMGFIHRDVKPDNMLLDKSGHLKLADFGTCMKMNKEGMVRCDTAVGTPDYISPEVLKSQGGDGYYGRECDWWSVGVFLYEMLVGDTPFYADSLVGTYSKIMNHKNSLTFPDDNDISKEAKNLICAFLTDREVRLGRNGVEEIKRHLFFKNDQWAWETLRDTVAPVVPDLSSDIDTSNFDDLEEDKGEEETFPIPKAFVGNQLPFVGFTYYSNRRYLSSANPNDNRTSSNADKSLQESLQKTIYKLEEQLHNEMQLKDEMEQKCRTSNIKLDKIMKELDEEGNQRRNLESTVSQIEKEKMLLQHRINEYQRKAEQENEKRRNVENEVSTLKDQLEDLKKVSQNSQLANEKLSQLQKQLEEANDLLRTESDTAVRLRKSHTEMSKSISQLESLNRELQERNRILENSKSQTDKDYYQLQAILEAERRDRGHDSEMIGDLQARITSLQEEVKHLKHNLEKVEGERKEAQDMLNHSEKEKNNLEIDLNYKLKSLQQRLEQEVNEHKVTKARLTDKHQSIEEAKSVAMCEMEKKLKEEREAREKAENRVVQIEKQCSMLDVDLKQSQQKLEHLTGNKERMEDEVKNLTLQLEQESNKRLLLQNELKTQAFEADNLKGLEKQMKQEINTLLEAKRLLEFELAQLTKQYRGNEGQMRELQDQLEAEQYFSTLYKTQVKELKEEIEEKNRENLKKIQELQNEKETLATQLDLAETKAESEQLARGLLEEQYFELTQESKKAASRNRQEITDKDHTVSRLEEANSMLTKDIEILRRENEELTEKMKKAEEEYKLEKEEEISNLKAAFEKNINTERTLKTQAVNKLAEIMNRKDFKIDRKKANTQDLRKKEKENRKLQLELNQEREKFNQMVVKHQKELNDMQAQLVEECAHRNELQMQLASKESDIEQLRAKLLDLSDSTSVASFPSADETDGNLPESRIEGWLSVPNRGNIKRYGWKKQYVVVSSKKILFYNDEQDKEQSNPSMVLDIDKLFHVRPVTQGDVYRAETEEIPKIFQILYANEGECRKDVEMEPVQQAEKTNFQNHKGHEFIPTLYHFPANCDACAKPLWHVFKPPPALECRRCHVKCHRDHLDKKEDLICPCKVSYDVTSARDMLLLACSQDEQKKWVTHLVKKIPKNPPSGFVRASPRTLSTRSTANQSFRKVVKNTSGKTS

[3] = biological target: T1, Rho-associated protein kinase 2; assay: Inhibition of active ROCK2 (R11-11G) (unknown origin) at 100 nM using S6K as substrate incubated for 3 hrs by ADP-Glo kinase assay relative to control
Target sequence in this assay (O75116 whole entry, looked up, the tested form may be a part): as the sequence (O75116 whole entry, the tested form may be a part) above

[4] = system: MDA-MB-231; assay: Inhibition of cell migration of human MDA-MB-231 cells at 1 uM incubated for 24 hrs; format: functional, cell-based
[5] = biological target: T1, Rho-associated protein kinase 2; assay: Inhibition of human ROCK2 using KEAKEKRQEQIAKRRRLSSLRASTSKSGGSQK as substrate incubated for 20 mins in presence of [gamma33P]ATP by filter binding method
Target sequence in this assay (O75116 whole entry, the tested form may be a part): as the sequence (O75116 whole entry, the tested form may be a part) above

[6] = biological target: T2, Rho-associated protein kinase 1; assay: Binding affinity to ROCK1 (unknown origin) incubated for 1 hrs by qPCR analysis
[7] = Cytotoxicity against human MDA-MB-231 cells assessed as cell viability at 10 uM incubated for 24 hrs by CellTiter-Blue assay relative to control; format: cell-based; settings: read-out: Activity
[8] = biological target: T2, Rho-associated protein kinase 1; assay: Inhibition of human ROCK1 using KEAKEKRQEQIAKRRRLSSLRASTSKSGGSQK as substrate incubated for 20 mins in presence of [gamma33P]ATP by filter binding method
[9] = biological target: T1, Rho-associated protein kinase 2; assay: Binding affinity to ROCK2 (unknown origin) incubated for 1 hr by qPCR analysis
Target sequence in this assay (O75116 whole entry, the tested form may be a part): as the sequence (O75116 whole entry, the tested form may be a part) above

[10] = Cytotoxicity against human MDA-MB-231 cells assessed as cell viability at 10 uM incubated for 12 hrs by CellTiter-Blue assay relative to control; format: cell-based; settings: read-out: Activity
[11] = system: MDA-MB-231; assay: Cytotoxicity against human MDA-MB-231 cells assessed as reduction in cell viability at 5 uM incubated for 12 hrs by CellTiter-Blue assay; format: cell-based; settings: mda-mb-231, 12 h

| SMILES | inhibition [3] | further results |
| --- | --- | --- |
| COc1nc(N[C@H]2CC[C@H](N)CC2)c(F)cc1C(N)=O | – | pIC50 [1]: 8.11; pIC50 [2]: 8.00 |
| Cc1n[nH]c2ccc3nc(-c4sccc4B(O)O)c4c(c3c12)CCC4 | Active | – |
| COc1c(B(O)O)cccc1-c1nc2ccc3[nH]ncc3c2cc1C | Active | – |
| OB(O)c1cccc(-c2nc3ccc4[nH]ncc4c3c3c2CCCC3)c1 | Active | – |
| OB(O)c1ccc(-c2nc3ccc4[nH]ncc4c3c3c2CCCC3)cc1 | Active | – |
| c1csc(-c2nc3ccc4[nH]ncc4c3c3c2CCCC3)c1 | Active | – |
| COc1c(B(O)O)cccc1-c1nc2ccc3[nH]ncc3c2c2c1CCC2 | 59% | inhibition [4]: Active; pIC50 [5]: 9.29; pKd [6]: 8.74 to 8.82; viability at 24 h, 10 µM [7]: 60 to 63%; pIC50 [8]: 8.91; pKd [9]: 8.89 to 8.92; viability at 12 h, 10 µM [10]: 75 to 80% |
| OB(O)c1ccc(-c2cc(-c3ccc(F)c(Cl)c3)c3c(ccc4[nH]ncc43)n2)cc1F | 10 to 15% | – |
| COc1c(B(O)O)cccc1-c1nc2ccc3[nH]ncc3c2cc1-c1ccncc1 | Active | – |
| COc1c(B(O)O)cccc1-c1cc(-c2ccc(F)c(Cl)c2)c2c(ccc3[nH]ncc32)n1 | 10 to 15% | – |
| OB(O)c1cccc(-c2nc3ccc4[nH]ncc4c3c3c2CCCC3)c1F | Active | – |
| c1nc2ccc3[nH]ncc3c2c2c1CCCC2 | 10 to 15% | – |
| c1cc(-c2nc3ccc4[nH]ncc4c3c3c2CCCC3)cs1 | Active | – |
| COc1c(B(O)O)cccc1-c1nc2ccc3[nH]ncc3c2cc1-c1ccc(Cl)cc1 | Active | – |
| OB(O)c1cccc(-c2nc3ccc4[nH]ncc4c3cc2-c2ccccc2)c1F | Active | – |
| COc1c(B(O)O)cccc1-c1cc(-c2cc(F)cc(F)c2)c2c(ccc3[nH]ncc32)n1 | 10 to 15% | – |
| OB(O)c1csc(-c2nc3ccc4[nH]ncc4c3c3c2CCCC3)c1 | Active | – |
| COc1ccc(-c2nc3ccc4[nH]ncc4c3c3c2CCCC3)cc1B(O)O | Active | – |
| OB(O)c1cccc(-c2nc3ccc4[nH]ncc4c3cc2-c2ccc(F)c(Cl)c2)c1F | Active | – |
| Cc1ccc(C(=O)OCc2ccc([C@@H](CN)C(=O)Nc3ccc4cnccc4c3)cc2)c(C)c1 | – | inhibition [4]: inactive; Activity [11]: Toxic |
| OB(O)c1ccc(-c2nc3ccc4[nH]ncc4c3c3c2CCCC3)cc1F | Active | – |
| OB(O)c1ccc(-c2nc3ccc4[nH]ncc4c3c3c2CCCC3)o1 | Active | – |
| COc1c(B(O)O)cccc1-c1nc2ccc3[nH]nc(C)c3c2c2c1CCC2 | 32% | – |
